# Measurements: ChEMBL document CHEMBL1201861, “Genomics of Drug Sensitity in Cancer screening data, Wellcome Trust Sanger Institute”
# Tests used:
# Experiment in all cases: cells
# TE-8 = type: functional, cell-based, Homo sapiens; settings: Homo sapiens, TE-8;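 also: growth inhibition of TE-8 cells, measured with a cell viability readout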
# Description: SANGER: Inhibition of human TE-8 cell growth in a cell viability assay.
# HEL = type: functional, cell-based, Homo sapiens; settings: Homo sapiens, HEL;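 also: growth inhibition of HEL cells, read out with a cell viability assay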
# Description: SANGER: Inhibition of human HEL cell growth in a cell viability assay.
# MSTO-211H = type: functional, cell-based, Homo sapiens; settings: Homo sapiens, MSTO-211H
# Description: SANGER: Inhibition of human MSTO-211H cell growth in a cell viability assay.
# CTV-1 = type: functional, cell-based, Homo sapiens; settings: Homo sapiens, CTV-1;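 also: growth inhibition of the cell line, read out with a cell viability assay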
# Description: SANGER: Inhibition of human CTV-1 cell growth in a cell viability assay.
# NCI-H69 = type: functional, cell-based, Homo sapiens; settings: Homo sapiens, NCI-H69;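 also: growth inhibition of the cell line, read out with a cell viability assay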
# Description: SANGER: Inhibition of human NCI-H69 cell growth in a cell viability assay.
# CW-2 = type: functional, cell-based, Homo sapiens; settings: Homo sapiens, CW-2;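 also: growth inhibition of CW-2 cells, read out by a cell viability assay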
# Description: SANGER: Inhibition of human CW-2 cell growth in a cell viability assay.
# HCC1187 = type: functional, cell-based, Homo sapiens; settings: Homo sapiens, HCC1187;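 also: growth inhibition of HCC1187 cells, read out with a cell viability assay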
# Description: SANGER: Inhibition of human HCC1187 cell growth in a cell viability assay.
# NCI-H1355 = type: functional, cell-based, Homo sapiens; settings: Homo sapiens, NCI-H1355;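 also: growth inhibition of human NCI-H1355 cells, read out by a cell viability assay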
# Description: SANGER: Inhibition of human NCI-H1355 cell growth in a cell viability assay.
# A4-Fuk = type: functional, cell-based, Homo sapiens; settings: Homo sapiens, A4-Fuk;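 also: growth inhibition of A4-Fuk cells, read out by a cell viability assay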
# Description: SANGER: Inhibition of human A4-Fuk cell growth in a cell viability assay.
# ETK-1 = type: functional, cell-based, Homo sapiens; settings: Homo sapiens, ETK-1;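 also: growth inhibition of human ETK-1 cells, read out with a cell viability assay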
# Description: SANGER: Inhibition of human ETK-1 cell growth in a cell viability assay.
# CAS-1 = type: functional, cell-based, Homo sapiens; settings: Homo sapiens, CAS-1;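 also: growth inhibition of CAS-1 cells, measured with a cell viability assay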
# Description: SANGER: Inhibition of human CAS-1 cell growth in a cell viability assay.
# NOMO-1 = type: functional, cell-based, Homo sapiens; settings: Homo sapiens, NOMO-1;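 also: growth inhibition of human NOMO-1 cells measured by a cell viability assay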
# Description: SANGER: Inhibition of human NOMO-1 cell growth in a cell viability assay.
# BV-173 = type: functional, cell-based, Homo sapiens; settings: Homo sapiens, BV-173
# Description: SANGER: Inhibition of human BV-173 cell growth in a cell viability assay.
# TE-12 = type: functional, cell-based, Homo sapiens; settings: Homo sapiens, TE-12;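 also: growth inhibition of TE-12 cells, read out by a cell viability assay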
# Description: SANGER: Inhibition of human TE-12 cell growth in a cell viability assay.
# A101D = type: functional, cell-based, Homo sapiens; settings: Homo sapiens, A101D;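 also: growth inhibition of the cell line, measured with a viability assay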
# Description: SANGER: Inhibition of human A101D cell growth in a cell viability assay.
# EOL1 = type: functional, cell-based, Homo sapiens; settings: Homo sapiens, EOL1;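 also: growth inhibition of EoL-1 cells, read out by a cell viability assay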
# Description: SANGER: Inhibition of human EoL-1-cell cell growth in a cell viability assay.
# EKVX = type: functional, cell-based, Homo sapiens; settings: Homo sapiens, EKVX;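 also: growth inhibition of human EKVX cells, read out with a cell viability assay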
# Description: SANGER: Inhibition of human EKVX cell growth in a cell viability assay.
# GCIY = type: functional, cell-based, Homo sapiens; settings: Homo sapiens, GCIY;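 also: growth inhibition of the human GCIY cell line, read out by a cell viability assay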
# Description: SANGER: Inhibition of human GCIY cell growth in a cell viability assay.
# RPMI-8226 = type: functional, cell-based, Homo sapiens; settings: Homo sapiens, RPMI-8226
# Description: SANGER: Inhibition of human RPMI-8226 cell growth in a cell viability assay.
# NEC8 = type: functional, cell-based, Homo sapiens; settings: Homo sapiens, NEC8;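 also: growth inhibition of human NEC8 cells, read out by a cell viability assay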
# Description: SANGER: Inhibition of human NEC8 cell growth in a cell viability assay.
# SK-N-DZ = type: functional, cell-based, Homo sapiens; settings: Homo sapiens, SK-N-DZ; read-out: IC50;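 also: growth inhibition of the cancer cell line, read out through a viability assay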
# Description: SANGER: Inhibition of human SK-N-DZ cell growth in a cell viability assay.
# SF-268 = type: functional, cell-based, Homo sapiens; settings: Homo sapiens, SF-268;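 also: growth inhibition of SF-268 cells determined with a cell viability assay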
# Description: SANGER: Inhibition of human SF268 cell growth in a cell viability assay.
# COLO-668 = type: functional, cell-based, Homo sapiens; settings: Homo sapiens, COLO-668
# Description: SANGER: Inhibition of human COLO-668 cell growth in a cell viability assay.
# NB10 = type: functional, cell-based, Homo sapiens; settings: Homo sapiens, NB10;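 also: growth inhibition of NB10 cells, read out by a cell viability assay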
# Description: SANGER: Inhibition of human NB10 cell growth in a cell viability assay.
# ATN-1 = type: functional, cell-based, Homo sapiens; settings: Homo sapiens, ATN-1;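 also: growth inhibition of human ATN-1 cells, read out with a cell viability assay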
# Description: SANGER: Inhibition of human ATN-1 cell growth in a cell viability assay.
# SCH = type: functional, cell-based, Homo sapiens; settings: Homo sapiens, SCH;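 also: growth inhibition of human SCH cells, read out in a cell viability assay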
# Description: SANGER: Inhibition of human SCH cell growth in a cell viability assay.
# LB1047-RCC = type: functional, cell-based, Homo sapiens; settings: Homo sapiens, LB1047-RCC;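 also: inhibition of cell growth, determined with a cell viability assay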
# Description: SANGER: Inhibition of human LB1047-RCC cell growth in a cell viability assay.
# MFM-223 = type: functional, cell-based, Homo sapiens; settings: Homo sapiens, MFM-223
# Description: SANGER: Inhibition of human MFM-223 cell growth in a cell viability assay.
# LU-139 = type: functional, cell-based, Homo sapiens; settings: Homo sapiens, LU-139
# Description: SANGER: Inhibition of human LU-139 cell growth in a cell viability assay.
# KNS-42 = type: functional, cell-based; settings: Homo sapiens;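 also: growth inhibition of KNS-42 cells, read out with a cell viability assay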
# Description: SANGER: Inhibition of human KNS-42 cell growth in a cell viability assay.
# NCI-H1838 = type: functional, cell-based, Homo sapiens; settings: Homo sapiens, NCI-H1838;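 also: growth inhibition of NCI-H1838 cells, determined with a cell viability readout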
# Description: SANGER: Inhibition of human NCI-H1838 cell growth in a cell viability assay.
# COLO-320-HSR = type: functional, cell-based, Homo sapiens; settings: Homo sapiens, COLO-320-HSR;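 also: growth inhibition of COLO-320-HSR cells, determined with a cell viability assay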
# Description: SANGER: Inhibition of human COLO-320-HSR cell growth in a cell viability assay.
# ES7 = type: functional, cell-based, Homo sapiens; settings: Homo sapiens, ES7;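 also: growth inhibition of cultured human ES7 cells, read out as cell viability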
# Description: SANGER: Inhibition of human ES7 cell growth in a cell viability assay.
# COLO-800 = type: functional, cell-based, Homo sapiens; settings: Homo sapiens, COLO-800;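 also: growth inhibition of COLO-800 cells, read out with a cell viability assay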
# Description: SANGER: Inhibition of human COLO-800 cell growth in a cell viability assay.
# EW-18 = type: functional, cell-based, Homo sapiens; settings: Homo sapiens, EW-18; read-out: IC50;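 also: growth inhibition of EW-18 cells, read out by a cell viability assay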
# Description: SANGER: Inhibition of human EW-18 cell growth in a cell viability assay.
# LNCaP-Clone-FGC = type: functional, cell-based, Homo sapiens; settings: Homo sapiens, LNCaP-Clone-FGC
# Description: SANGER: Inhibition of human LNCaP-Clone-FGC cell growth in a cell viability assay.
# KINGS-1 = type: functional, cell-based, Homo sapiens; settings: Homo sapiens, KINGS-1;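 also: cell viability assay measuring suppression of KINGS-1 cell growth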
# Description: SANGER: Inhibition of human KINGS-1 cell growth in a cell viability assay.
# COLO-829 = type: functional, cell-based, Homo sapiens; settings: Homo sapiens, COLO-829
# Description: SANGER: Inhibition of human COLO-829 cell growth in a cell viability assay.
# P30-OHK = type: functional, cell-based, Homo sapiens; settings: Homo sapiens, P30-OHK;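 also: growth inhibition of the P30-OHK cell line, read out with a cell viability assay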
# Description: SANGER: Inhibition of human P30-OHK cell growth in a cell viability assay.
# RH-1 = type: functional, cell-based, Homo sapiens; settings: Homo sapiens, RH-1;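 also: growth inhibition of human RH-1 cells, read out with a cell viability assay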
# Description: SANGER: Inhibition of human RH-1 cell growth in a cell viability assay.
# HAL-01 = type: functional, cell-based, Homo sapiens; settings: Homo sapiens, HAL-01;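 also: growth inhibition of human HAL-01 cells, read out with a cell viability assay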
# Description: SANGER: Inhibition of human HAL-01 cell growth in a cell viability assay.
# SK-NEP-1 = type: functional, cell-based, Homo sapiens; settings: Homo sapiens, SK-NEP-1;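 also: growth inhibition of human SK-NEP-1 cells, read out by a cell viability assay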
# Description: SANGER: Inhibition of human SK-NEP-1 cell growth in a cell viability assay.
# U-87 MG = type: functional, cell-based, Homo sapiens, U-87MG ATCC; settings: Homo sapiens, U-87 MG;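 also: growth inhibition of the cells measured with a viability assay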
# Description: SANGER: Inhibition of human U-87-MG cell growth in a cell viability assay.
# SW872 = type: functional, cell-based, Homo sapiens; settings: Homo sapiens, SW872;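 also: growth inhibition of SW872 cells, read out by a viability assay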
# Description: SANGER: Inhibition of human SW872 cell growth in a cell viability assay.
# D283 Med = type: functional, cell-based, Homo sapiens; settings: Homo sapiens, D283 Med
# Description: SANGER: Inhibition of human D-283MED cell growth in a cell viability assay.
# QIMR-WIL = type: functional, cell-based, Homo sapiens; settings: Homo sapiens, QIMR-WIL;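 also: growth inhibition of QIMR-WIL cells, read out with a cell viability assay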
# Description: SANGER: Inhibition of human QIMR-WIL cell growth in a cell viability assay.
# K562 = type: functional, cell-based, Homo sapiens; settings: Homo sapiens, K562
# Description: SANGER: Inhibition of human K-562 cell growth in a cell viability assay.
# HCC2218 = type: functional, cell-based, Homo sapiens; settings: Homo sapiens, HCC2218;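 also: cell viability assay read-out, with IC50 given as the concentration that inhibits growth of the cell line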
# Description: SANGER: Inhibition of human HCC2218 cell growth in a cell viability assay.
structure (smiles),measurement,setting,value
CC(C)C[C@H](NC(=O)[C@H](Cc1ccccc1)NC(=O)c1cnccn1)B(O)O [BORTEZOMIB],IC50,TE-8,1.19 nM
same,IC50,HEL,1.61 nM
same,IC50,MSTO-211H,> 20 nM
same,IC50,CTV-1,2.8 nM
same,IC50,NCI-H69,1.54 nM
same,IC50,CW-2,3.21 nM
same,IC50,HCC1187,3.54 nM
same,IC50,NCI-H1355,0.895 nM
same,IC50,A4-Fuk,0.623 nM
same,IC50,ETK-1,2.84 nM
same,IC50,CAS-1,1.37 nM
same,IC50,NOMO-1,4.33 nM
same,IC50,BV-173,> 20 nM
same,IC50,TE-12,4.25 nM
same,IC50,A101D,0.225 nM
same,IC50,EOL1,18.3 nM
same,IC50,EKVX,2.14 nM
same,IC50,GCIY,1.62 nM
same,IC50,RPMI-8226,2.35 nM
same,IC50,NEC8,3.35 nM
same,IC50,SK-N-DZ,3.26 nM
same,IC50,SF-268,0.923 nM
same,IC50,COLO-668,> 20 nM
same,IC50,NB10,2.32 nM
same,IC50,ATN-1,8.89 nM
same,IC50,SCH,> 20 nM
same,IC50,LB1047-RCC,2.57 nM
same,IC50,MFM-223,17.9 nM
same,IC50,LU-139,5.13 nM
same,IC50,KNS-42,0.258 nM
same,IC50,NCI-H1838,> 20 nM
same,IC50,COLO-320-HSR,3.92 nM
same,IC50,ES7,0.766 nM
same,IC50,COLO-800,17.6 nM
same,IC50,EW-18,18 nM
same,IC50,LNCaP-Clone-FGC,> 20 nM
same,IC50,KINGS-1,0.722 nM
same,IC50,COLO-829,0.614 nM
same,IC50,P30-OHK,> 20 nM
same,IC50,RH-1,> 20 nM
same,IC50,HAL-01,1.18 nM
same,IC50,SK-NEP-1,9.01 nM
same,IC50,U-87 MG,16.8 nM
same,IC50,SW872,0.996 nM
same,IC50,D283 Med,> 20 nM
same,IC50,QIMR-WIL,0.889 nM
same,IC50,K562,4.12 nM
same,IC50,HCC2218,19.5 nM
